Experiments:
BTK [1] = biological target: T1, BTK (Homo sapiens (Human), UniProt Q06187); experiment: BTK enzymatic activity assay (Caliper-based kinase assay); assay type: biochemical; conditions: human recombinant BTK 0.5 nM, ATP 16 μM, 3 h room temperature
Protocol: A Caliper-based kinase assay (Caliper Life Sciences, Hopkinton, Mass.) was used to measure inhibition of BTK kinase activity of a compound of the present disclosure. […] The reaction was then terminated with EDTA, final concentration 20 mM and the phosphorylated reaction product was quantified on a Caliper Desktop Profiler (Caliper LabChip 3000). […] This value is presented as the IC50.

BTK [2] = biological target: T1, BTK; experiment: Determination of drug-kinase residence time (TR-FRET tracer competition, occupancy after washout); assay type: binding; conditions: 1.5 μM compound, 500 nM BTK; for % occupany at 1 h: 1 h of washout; for % occupany at 6 h: 6 h of washout; for % occupany at 24 h: 24 h of washout
Protocol: The experiment was conducted in a buffer consisting of 50 mM Hepes pH 7.5, 10 mM MgCl2, 0.01% Triton X-100, and 1 mM EGTA.
The mixture was then diluted 5-fold by addition of 40 μL of buffer. […] In order to probe for reversibility of the kinase-compound binding interaction, a competition solution containing both a high affinity fluorescent tracer and an antibody coupled to Europium was prepared. […] The competition solution also contained 80 nM of an Anti-polyhistidine antibody coupled to Europium (Invitrogen Cat. #PV5596) which is designed to bind the polyhistidine purification tag in BTK.
It is to be expected that covalent and slow dissociating inhibitors will block binding of the tracer while rapidly dissociating non-covalent inhibitors will not. […] Data were plotted at percentage of signal obtained in the absence of competitor compound. The background signal was obtained by omission of BTK from the reaction. […] If the compound is a reversible covalent inhibitor, the tracer will bind the target as the compound dissociates from the target.

T1 sequence (Q06187 whole entry): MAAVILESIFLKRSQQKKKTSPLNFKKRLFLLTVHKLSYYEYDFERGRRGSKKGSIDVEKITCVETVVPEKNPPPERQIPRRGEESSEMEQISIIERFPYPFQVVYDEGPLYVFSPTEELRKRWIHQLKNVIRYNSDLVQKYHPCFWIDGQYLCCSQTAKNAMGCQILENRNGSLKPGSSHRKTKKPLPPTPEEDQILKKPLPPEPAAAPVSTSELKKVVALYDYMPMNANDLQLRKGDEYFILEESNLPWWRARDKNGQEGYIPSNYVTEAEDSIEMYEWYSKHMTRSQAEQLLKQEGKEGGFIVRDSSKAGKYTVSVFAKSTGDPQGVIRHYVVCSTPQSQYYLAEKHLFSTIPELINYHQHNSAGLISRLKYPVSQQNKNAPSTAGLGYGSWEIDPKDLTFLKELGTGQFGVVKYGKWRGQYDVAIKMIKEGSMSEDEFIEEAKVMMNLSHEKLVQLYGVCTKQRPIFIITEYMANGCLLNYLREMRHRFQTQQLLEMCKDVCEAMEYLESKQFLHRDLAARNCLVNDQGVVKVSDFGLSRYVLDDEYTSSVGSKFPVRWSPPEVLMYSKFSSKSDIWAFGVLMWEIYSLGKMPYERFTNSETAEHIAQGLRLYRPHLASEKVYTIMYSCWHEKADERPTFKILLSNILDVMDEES

SMILES	IC50 (BTK [1]) [nM]	% occupany at 1 h (BTK [2]) [%]	% occupany at 6 h (BTK [2]) [%]	% occupany at 24 h (BTK [2]) [%]
CC(C)(C=C(C#N)C(=O)N1CCC[C@@H](n2c(=O)n(-c3ccc(Oc4ccccc4)cc3)c3c(N)nccc32)C1)N1CCOCC1 [Compound 4, (R)-2-(3-(4-amino-2-oxo-3-(4-phenoxyphenyl)-2,3-dihydro-1H-imidazo[4,5-c]pyridin-1-yl)piperidine-1-carbonyl)-4-methyl-4-morpholinopent-2-enenitrile]	7.8	90.005	66.344	18.2
COCCN1CCN(C(C)(C)C=C(C#N)C(=O)N2CCC[C@@H](n3c(=O)n(-c4ccc(Oc5ccccc5)cc4)c4c(N)nccc43)C2)CC1 [Compound 9, (R)-2-(3-(4-amino-2-oxo-3-(4-phenoxyphenyl)-2,3-dihydro-1H-imidazo[4,5-c]pyridin-1-yl)piperidine-1-carbonyl)-4-(4-(2-methoxyethyl)piperazin-1-yl)-4-methylpent-2-enenitrile]	7.8	93.363	70.733	31.4
N#CC(=CC1CCOCC1)C(=O)N1CCC[C@@H](n2c(=O)n(-c3ccc(Oc4ccccc4)cc3)c3c(N)nccc32)C1 [Compound 2, (R)-2-(3-(4-amino-2-oxo-3-(4-phenoxyphenyl)-2,3-dihydro-1H-imidazo[4,5-c]pyridin-1-yl)piperidine-1-carbonyl)-3-(tetrahydro-2H-pyran-4-yl)acrylonitrile]	9.1	93.602	85.49	65.826
CC(C)(C)C=C(C#N)C(=O)N1CCC[C@H]1Cn1c(=O)n(-c2ccc(Oc3ccccc3)cc2)c2c(N)nccc21 [Compound 12, (S)-2-(2-((4-amino-2-oxo-3-(4-phenoxyphenyl)-2,3-dihydro-1H-imidazo[4,5-c]pyridin-1-yl)methyl)pyrrolidine-1-carbonyl)-4,4-dimethylpent-2-enenitrile]	6.6	95.906	96.44	90.847
CC#CC(=O)N1CCC[C@@H](n2c(=O)n(-c3ccc(Oc4ccccc4)cc3)c3c(N)nccc32)C1 [Compound 17, (R)-4-amino-1-(1-(but-2-ynoyl)piperidin-3-yl)-3-(4-phenoxyphenyl)-1H-imidazo[4,5-c]pyridin-2(3H)-one]	13.3	81.247	78.623	74.744
COC(=O)N1CCN(C(C)(C)C=C(C#N)C(=O)N2CCC[C@H]2Cn2c(=O)n(-c3ccc(Oc4ccccc4)cc3)c3c(N)nccc32)CC1 [Compound 15, (S)-methyl 4-(5-(2-((4-amino-2-oxo-3-(4-phenoxyphenyl)-2,3-dihydro-1H-imidazo[4,5-c]pyridin-1-yl)methyl)pyrrolidin-1-yl)-4-cyano-2-methyl-5-oxopent-3-en-2-yl)piperazine-1-carboxylate]	72.3	91.927	85.356	50.188
COC(=O)N1CCN(C(C)(C)C=C(C#N)C(=O)N2CCC[C@@H](n3c(=O)n(-c4ccc(Oc5ccccc5)cc4)c4c(N)nccc43)C2)CC1 [Compound 10, (R)-methyl 4-(5-(3-(4-amino-2-oxo-3-(4-phenoxyphenyl)-2,3-dihydro-1H-imidazo[4,5-c]pyridin-1-yl)piperidin-1-yl)-4-cyano-2-methyl-5-oxopent-3-en-2-yl)piperazine-1-carboxylate]	7	94.392	77.985	49.145
CC(C)(C=C(C#N)C(=O)N1CCC[C@H]1Cn1c(=O)n(-c2ccc(Oc3ccccc3)cc2)c2c(N)nccc21)N1CCN(C2COC2)CC1 [Compound 13, (S)-2-(2-((4-amino-2-oxo-3-(4-phenoxyphenyl)-2,3-dihydro-1H-imidazo[4,5-c]pyridin-1-yl)methyl)pyrrolidine-1-carbonyl)-4-methyl-4-(4-(oxetan-3-yl)piperazin-1-yl)pent-2-enenitrile]	21.1	91.54	83.963	49.152
N#CC(=CC1CCC1)C(=O)N1CCC[C@@H](n2c(=O)n(-c3ccc(Oc4ccccc4)cc3)c3c(N)nccc32)C1 [Compound 8, (R)-2-(3-(4-amino-2-oxo-3-(4-phenoxyphenyl)-2,3-dihydro-1H-imidazo[4,5-c]pyridin-1-yl)piperidine-1-carbonyl)-3-cyclobutylacrylonitrile]	23.9	93.335	89.195	80.873
CC1(C=C(C#N)C(=O)N2CCC[C@@H](n3c(=O)n(-c4ccc(Oc5ccccc5)cc4)c4c(N)nccc43)C2)CCC1 [Compound 3, (R)-2-(3-(4-amino-2-oxo-3-(4-phenoxyphenyl)-2,3-dihydro-1H-imidazo[4,5-c]pyridin-1-yl)piperidine-1-carbonyl)-3-(1-methylcyclobutyl)acrylonitrile]	21.6	65.626	58.519	46.073
CC(C)(C)C=C(C#N)C(=O)N1CCC[C@@H](n2c(=O)n(-c3ccc(Oc4ccccc4)cc3)c3c(N)nccc32)C1 [Compound 1, (R)-2-(3-(4-amino-2-oxo-3-(4-phenoxyphenyl)-2,3-dihydro-1H-imidazo[4,5-c]pyridin-1-yl)piperidine-1-carbonyl)-4,4-dimethylpent-2-enenitrile]	8.2	97.036	82.199	70.975
CC(C)(C=C(C#N)C(=O)N1CCC[C@@H](n2c(=O)n(-c3ccc(Oc4ccccc4)cc3)c3c(N)nccc32)C1)N1CCN(C2COC2)CC1 [Compound 5, (R)-2-(3-(4-amino-2-oxo-3-(4-phenoxyphenyl)-2,3-dihydro-1H-imidazo[4,5-c]pyridin-1-yl)piperidine-1-carbonyl)-4-methyl-4-(4-(oxetan-3-yl)piperazin-1-yl)pent-2-enenitrile]	2.5	93.773	83.103	57.488
CN1CCN(C(C)(C)C=C(C#N)C(=O)N2CCC[C@@H](n3c(=O)n(-c4ccc(Oc5ccccc5)cc4)c4c(N)nccc43)C2)CC1=O [Compound 18, (R)-2-(3-(4-amino-2-oxo-3-(4-phenoxyphenyl)-2,3-dihydro-1H-imidazo[4,5-c]pyridin-1-yl)piperidine-1-carbonyl)-4-methyl-4-(4-methyl-3-oxopiperazin-1-yl)pent-2-enenitrile]	3.7	93.065	73.513	31.704
CC(C)(C=C(C#N)C(=O)N1CCC[C@H]1Cn1c(=O)n(-c2ccc(Oc3ccccc3)cc2)c2c(N)nccc21)N1CCOCC1 [Compound 14, (S)-2-(2-((4-amino-2-oxo-3-(4-phenoxyphenyl)-2,3-dihydro-1H-imidazo[4,5-c]pyridin-1-yl)methyl)pyrrolidine-1-carbonyl)-4-methyl-4-morpholinopent-2-enenitrile]	17.2	91.481	76.396	22.922

From patent US9688676B2, “Tyrosine kinase inhibitors” (PRINCIPIA BIOPHARMA INC., priority 2015, dated 2017)
